Assays:
Settings in all cases: 72 h
[1] = test system: Caco-2; assay: cell viability relative to DMSO; higher = less toxic
[2] = test system: Calu-3; assay: as above
[3] = test system: HepG2; assay: as above
[4] = test system: U2OS; assay: as above
[5] = test system: Vero E6; assay: as above
[6] = test system: Caco-2; assay: relative viability EC50 (midpoint between 100% and the lowest measured viability); higher = less toxic
[7] = test system: Calu-3; assay: as above
[8] = test system: HepG2; assay: as above
[9] = test system: U2OS; assay: as above
[10] = test system: Vero E6; assay: as above
[11] = test system: Caco-2; assay: drug sensitivity score (DSS) for viability; higher = more toxic; extreme values may be limits of the assay
[12] = test system: Calu-3; assay: as above
[13] = test system: HepG2; assay: as above
[14] = test system: U2OS; assay: as above
[15] = test system: Vero E6; assay: as above

Row | SMILES | cell viability ([1]; 1 nM) [%] | cell viability ([1]; 10 nM) [%] | cell viability ([1]; 100 nM) [%] | cell viability ([1]; 1000 nM) [%] | cell viability ([1]; 10000 nM) [%] | cell viability ([2]; 1 nM) [%] | cell viability ([2]; 10 nM) [%] | cell viability ([2]; 100 nM) [%] | cell viability ([2]; 1000 nM) [%] | cell viability ([2]; 10000 nM) [%] | cell viability ([3]; 1 nM) [%] | cell viability ([3]; 10 nM) [%] | cell viability ([3]; 100 nM) [%] | cell viability ([3]; 1000 nM) [%] | cell viability ([3]; 10000 nM) [%] | cell viability ([4]; 1 nM) [%] | cell viability ([4]; 10 nM) [%] | cell viability ([4]; 100 nM) [%] | cell viability ([4]; 1000 nM) [%] | cell viability ([4]; 10000 nM) [%] | cell viability ([5]; 1 nM) [%] | cell viability ([5]; 10 nM) [%] | cell viability ([5]; 100 nM) [%] | cell viability ([5]; 1000 nM) [%] | cell viability ([5]; 10000 nM) [%] | relative viability EC50 [6] [µM] | relative viability EC50 [7] [µM] | relative viability EC50 [8] [µM] | relative viability EC50 [9] [µM] | relative viability EC50 [10] [µM] | drug sensitivity score [11] | drug sensitivity score [12] | drug sensitivity score [13] | drug sensitivity score [14] | drug sensitivity score [15]
1 | CC(=O)[C@H]1CC[C@H]2[C@@H]3CC[C@H]4C[C@H](O)CC[C@]4(C)[C@H]3C(=O)C[C@]12C [alfaxalone] | 101 | 101 | 89.6 | 103 | 104 | 94.7 | 99.9 | 87.7 | 97.4 | 101 | 98.6 | 102 | 94.1 | 96.1 | 106 | 97.8 | 99.2 | 97.7 | 103 | 102 | 99.6 | 95.9 | 99.7 | 94.3 | 107 | > 10 | > 10 | > 10 | > 10 | > 10 | 0 | 0 | 0 | 0 | 0
2 | O=[N+]([O-])c1cccc2c(Br)n[nH]c12 [3-bromo-7-nitroindazole] | 106 | 102 | 93.8 | 104 | 99.3 | 102 | 88.4 | 97.3 | 87 | 98.2 | 94.4 | 99 | 98.3 | 97.5 | 102 | 97.6 | 101 | 99 | 104 | 98.8 | 100 | 97.5 | 98.6 | 95.8 | 91.2 | > 10 | > 10 | > 10 | > 10 | > 10 | 0 | 0 | 0 | 0 | 0
3 | N[C@@H](Cc1cc(-c2ccc(Cl)cc2Cl)cc(CP(=O)(O)O)c1O)C(=O)O [SDZ-220-040] | 103 | 99.5 | 94.3 | 94.3 | 102 | 105 | 104 | 98.2 | 108 | 110 | 97.4 | 108 | 99.2 | 104 | 89.1 | 105 | 98.6 | 103 | 98.2 | 100 | 98.7 | 102 | 106 | 104 | 100 | > 10 | > 10 | > 10 | > 10 | > 10 | 0 | 0 | 0 | 0 | 0
4 | COc1ccc(Nc2ncnc3ccc(OC)cc23)cc1 | 105 | 102 | 101 | 99.5 | 91.3 | 93.9 | 108 | 95.4 | 89.6 | 77.5 | 106 | 98.3 | 93.5 | 93 | 83 | 101 | 102 | 103 | 99 | 106 | 102 | 106 | 99.6 | 100 | 85.2 | > 10 | > 10 | > 10 | > 10 | > 10 | 0 | 1.5 | 0.6 | 0 | 0.2
5 | O=C(O)c1ccccc1Nc1cc(Cl)ccc1C(=O)O [lobenzarit] | 95.9 | 101 | 99.1 | 93.1 | 98.2 | 111 | 88.1 | 108 | 95.2 | 90.3 | 106 | 109 | 95.6 | 103 | 105 | 91.3 | 96 | 101 | 96.9 | 104 | 97.7 | 97.3 | 86 | 87.4 | 114 | > 10 | > 10 | > 10 | > 10 | > 10 | 0 | 0.2 | 0 | 0 | 0
6 | CCCCCCCCCCCCCCCC[N+](C)(C)C [cetrimonium] | 92.7 | 95.9 | 96.3 | 86.6 | 18.5 | 97.7 | 97.8 | 109 | 83.6 | 43.1 | 97.9 | 93.2 | 96.5 | 93.6 | 28 | 99 | 95 | 97.5 | 84.6 | 14.3 | 96.5 | 93.5 | 97.7 | 87.5 | 23.8 | 1.9 | 1.44 | 2.43 | 1.83 | 1.91 | 6.8 | 5.5 | 5 | 7.3 | 6.3
7 | N=C(C[C@@H](O)COc1ccccc1-c1ccccc1)N1CCCCC1 | 95.7 | 100 | 81.8 | 96.6 | 89.5 | 100 | 98.2 | 90.1 | 104 | 83.6 | 92.8 | 94.5 | 109 | 84.4 | 101 | 99.9 | 103 | 96.8 | 102 | 92.8 | 97.5 | 102 | 96.6 | 96.8 | 102 | > 10 | > 10 | > 10 | > 10 | > 10 | 0 | 0.2 | 0 | 0 | 0

— the supplement of paper PMC13380429
